Where two headings read alike, the source gives them in different places.
What was measured:
[1] = test system: primary human hepatocytes (PHH) spheroids; settings: 14 days of treatment, preliminary
Method: To compare how the best performing media influenced the DILI response, a similar approach but in the 384-well format we performed a preliminary hepatotoxicity study (Figure S6). Five prototypic compounds from the previous study were tested in HMM, WENG, and WENG+ media. […] Hepatotoxicity was evaluated after chronic exposure to each of the five drug compounds at 1×, 5×, and 20× times their clinical Cmax concentrations for two weeks, as outlined by [Vorrink et al., (2018)].
ATP conent (expressed as relative light units; RLU) was used to measure the energy status of the PHH spheroids. The spheroids were incubated in AccuMax cell dissociation solution (Thermo Fisher Scientific) for 30 min at 37°C followed by centrifugation at 100 x g for 5 min. The CellTiter-Glo3D assay (Promega, Madison, Wisconsin) was used, with slight modifications. Briefly, the plate was first left for 30 min at room temperature for temperature equilibration. Thereafter CellTiter-Glo® 3D was added, and the plate left in room temperature for another 20 min on a horizontal plate shaker. The luminescence was measured on a Spark plate reader (TECAN). The results are presented as mean values +/- SD of eight technical replicates performed on three independent occasions.
Preliminary studies of hepatotoxicity were conducted as previously described for the 96-well format ([Vorrink et al., 2018]). Briefly, PHHs were cultured in 384-well plates in HMM, WENG or WENG+ media for 1 week to form spheroids. The compounds were dissolved in dimethyl sulfoxide (DMSO), and added to the wells at a final DMSO concentration of 0.5%. As in the Vorrink et al. study, final concentrations of 1×, 5×, and 20× times the clinical Cmax of the compounds were used The exposure medium was changed every 48–72h for the 14 days of treatment. On the last day, PHH viability was assessed by measurement of ATP content (see above) and a viability below 80% of control levels was considered hepatotoxic ([Vorrink et al., 2018]).

[2] = test system: PHH spheroids; settings: 96-well format, medium similar to WEHG; ref Vorrink et al., 2018; cited from earlier work
[3] = test system: albumin; settings: ref Davies and Anderson, 1997; U. S. Food and Drug Administration, 2019; cited from earlier work
[4] = WENG+ medium (zinc-supplemented), 1×, 5×, 20× clinical Cmax
[5] = all media (HMM, WENG, WENG+), all concentrations (1×, 5×, 20× clinical Cmax), controls gave correct results

SMILES	Hepatotoxicity (DILI signal; viability below 80% of control levels considered hepatotoxic) [1, 4]	DILI classification in the previous study [2]	Hepatotoxicity (DILI signal; viability below 80% of control levels considered hepatotoxic) [1, 5]	other results
O=C(O)Cc1ccccc1Nc1c(Cl)cccc1Cl [diclofenac]	did not show a DILI signal	DILI-positive		
CC(=O)CC(c1ccccc1)c1c(O)c2ccccc2oc1=O (stereo not drawn) [warfarin]			negative	
CN(C)CCCN1c2ccccc2Sc2ccc(Cl)cc21 [chlorpromazine]	did not show a DILI signal	DILI-positive		
Cn1cnc([N+](=O)[O-])c1Sc1ncnc2nc[nH]c12 [azathioprine]		DILI-positive	positive	
Cc1ncc2n1-c1ccc(Cl)cc1C(c1ccccc1F)=NC2 [midazolam]				Binding to albumin [3]: highly bound
OC(Cn1cncn1)(Cn1cncn1)c1ccc(F)cc1F [fluconazole]	false negative response	false DILI-negative		Hepatotoxicity (DILI signal; viability below 80% of control levels considered hepatotoxic) ([1]; HMM medium, 1×, 5×, 20× clinical Cmax): strong DILI signal; Hepatotoxicity (DILI signal; viability below 80% of control levels considered hepatotoxic) ([1]; WENG medium, 1×, 5×, 20× clinical Cmax): strong DILI signal
